The results in this text go back to US10829499B2, “Tetracyclic heterocycle compounds useful as HIV integrase inhibitors” (MERCK SHARP & DOHME CORP., priority 2016, dated 2020).

This experiment concerns HIV-1 (NL4-3 strain). The experiment in a line: Assay for Inhibition of HIV Replication (kinetic assay, MT4-gag-GFP reporter cell line; VIKING). It is filed as cell-based. Put shortly:
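MT4-gag-GFP cells infected with HIV-1 NL4-3 at low MOI for 24 h were seeded with compound (0.4% DMSO) in medium with 0%, 10% or 100% normal human serum. GFP-positive cells were counted at 24 and 48 h, and R0 was the 48 h/24 h ratio. Inhibition was scaled to DMSO and triple-drug controls, and IC50 came from 4-parameter fits.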

Where [1] appears, read: Human immunodeficiency virus 1, NL43, MT4-GFP cells infected with HIV-1 NL4-3, 0% normal human serum (NHS), read-out: VIKING IP50 (nM) with 0% NHS.
The mark [2] stands for this setting: Human immunodeficiency virus 1, NL43, MT4-GFP cells infected with HIV-1 NL4-3, 100% normal human serum (NHS), read-out: VIKING IP50 (nM) with 100% NHS.
[3] abbreviates: MT4-GFP cells infected with HIV-1 NL4-3, 0% normal human serum (NHS), read-out: VIKING IP50 (nM) with 0% NHS.
The mark [4] stands for this setting: MT4-GFP cells infected with HIV-1 NL4-3, 100% normal human serum (NHS), read-out: VIKING IP50 (nM) with 100% NHS.

Where two headings read alike, the source gives them in different places.

Consider `CCNC1C[C@@H]2[C@H]3OC4CCC(C4)N3C(=O)c3c(O)c(=O)c(C(=O)NCc4ccc(F)cc4F)c1n32` (some centres unmarked) [Compound 174], for which the IC50 is, setting by setting: under setting [1], 30.2 nM; under setting [2], 114 nM.

As to `CN1CCCN2C(=O)c3c(O)c(=O)c(C(=O)NCc4cccc(Cl)c4F)c4n3C(CC4)C12` (single isomer, unassigned) [Compound 84], the IC50 by setting is: under setting [3], 0.762 nM; under setting [4], 37.5 nM.

Turning to `C[C@H]1CNC2C3CCc4c(-c5nnc(Cc6ccc(F)cc6F)s5)c(=O)c(O)c(n43)C(=O)N21` (some centres unmarked) [Compound 128], the IC50 under setting [2] turned out to be 361 nM and the IC50 under setting [3] was 6.69 nM.

Turning to `CCNC1CC2C3OCCCN3C(=O)c3c(O)c(=O)c(C(=O)NCc4cccc(Cl)c4F)c1n32` (centres unmarked) [Compound 197], the IC50 by setting is: under setting [3], 14 nM; under setting [4], 15100 nM.

On to `C[C@H]1CNC2C3CCc4c(C(=O)NCc5ccc(F)cc5F)c(=O)c(O)c(n43)C(=O)N21` (some centres unmarked) [Compound 99], for which the IC50 reads like this: under setting [1], 2.28 nM; under setting [4], 19.2 nM.

Turning to `C[C@H]1CN2C(=O)c3c(O)c(=O)c(C(=O)NCc4ccc(F)cc4F)c4n3C(CC4)C2N1` (some centres unmarked) [Compound 98], the IC50 was found to be 1.48 nM under setting [3] and 16 nM under setting [4].

For the molecule `C[C@@H]1COC2C3CCc4c(C(=O)NCc5cccc(Cl)c5F)c(=O)c(O)c(n43)C(=O)N21` (some centres unmarked) [Compound 35], the IC50 is 0.733 nM under setting [1] and 88.7 nM under setting [2].

Turning to `C[C@H]1CN2C(=O)c3c(O)c(=O)c(C(=O)NCc4cccc(Cl)c4F)c4n3C(CC4)C2N1S(C)(=O)=O` (some centres unmarked) [Compound 119], the IC50 reads like this: under setting [3], 8.77 nM; under setting [4], 445 nM.

With `CCNC1CC2C3OCCCN3C(=O)c3c(O)c(=O)c(C(=O)NCc4cccc(F)c4F)c1n32` (centres unmarked) [Compound 188], the IC50 stood at 16.3 nM under setting [3] and 462 nM under setting [4].

With `C[C@H]1CN2C(=O)c3c(O)c(=O)c(C(=O)NCc4cccc(Cl)c4F)c4n3C(CC4)C2N1C` (some centres unmarked) [Compound 105], the IC50 is, setting by setting: under setting [3], 0.495 nM; under setting [4], 32.6 nM.

With `O=C(NCc1c(F)cc(F)cc1F)c1c2n3c(c(O)c1=O)C(=O)N1C4CCC(C4)OC1C3CC2` (centres unmarked) [Compound 168], the IC50 is, setting by setting: under setting [1], 3.72 nM; under setting [4], 1620 nM.

Turning to `C[C@@H]1CN2C(=O)c3c(O)c(=O)c(C(=O)NCc4cccc(Cl)c4F)c4n3C(CC4)C2O1` (single isomer, unassigned) [Compound 41], the IC50 worked out at 0.854 nM under setting [3] and 2380 nM under setting [4].

For the molecule `O=C(NCc1cccc(Cl)c1F)c1c2n3c(c(O)c1=O)C(=O)N1CCCOC1C3CC2` (single isomer, unassigned) [Compound 50], the IC50 under setting [3] worked out at 0.901 nM and the IC50 under setting [4] stood at 1070 nM.
